# In patent US20260124222A1, “ISOTHIAZOLYLCARBOXAMIDE COMPOUNDS AND THEIR USE IN THERAPY” (HOTSPOT THERAPEUTICS, INC., priority 2022, published 2026):
# pIC50: −log10 of the molar value.
# Molecular target: T1, Avi-tagged FL MALT-1 (Homo sapiens, UniProt Q9UDY8)
# T1 construct: Avi-tagged FL MALT-1 (Pharmaron, stored at −70° C.); Avi-tag; purchased Pharmaron
# T1 sequence (Q9UDY8 1-824): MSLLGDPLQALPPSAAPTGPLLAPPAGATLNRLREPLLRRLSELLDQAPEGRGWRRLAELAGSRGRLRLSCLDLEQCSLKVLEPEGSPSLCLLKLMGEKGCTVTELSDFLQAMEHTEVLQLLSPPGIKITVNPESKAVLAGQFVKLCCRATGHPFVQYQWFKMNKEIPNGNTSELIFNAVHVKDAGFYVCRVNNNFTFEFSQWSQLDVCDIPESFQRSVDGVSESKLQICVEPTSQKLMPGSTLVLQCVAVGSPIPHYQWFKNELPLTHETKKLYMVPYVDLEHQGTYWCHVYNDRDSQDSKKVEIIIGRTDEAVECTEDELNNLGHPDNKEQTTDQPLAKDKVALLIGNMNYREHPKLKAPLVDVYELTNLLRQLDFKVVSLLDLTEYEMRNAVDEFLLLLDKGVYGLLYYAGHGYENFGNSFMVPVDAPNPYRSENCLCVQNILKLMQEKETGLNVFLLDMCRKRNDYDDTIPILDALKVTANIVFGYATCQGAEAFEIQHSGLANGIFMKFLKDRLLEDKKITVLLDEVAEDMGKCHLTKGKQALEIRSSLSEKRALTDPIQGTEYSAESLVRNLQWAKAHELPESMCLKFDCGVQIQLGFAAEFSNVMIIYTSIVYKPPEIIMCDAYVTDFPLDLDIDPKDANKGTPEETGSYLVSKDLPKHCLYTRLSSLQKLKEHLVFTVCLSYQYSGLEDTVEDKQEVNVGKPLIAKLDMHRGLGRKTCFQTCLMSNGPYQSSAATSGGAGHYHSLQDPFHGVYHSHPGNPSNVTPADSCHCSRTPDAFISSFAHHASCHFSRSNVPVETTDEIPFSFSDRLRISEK
# Assay: MALT-1 Fluorogenic Peptide Cleavage Assay (MALT1 inhibition assay)
# Type: biochemical
# Settings: Ac-LRSR-AMC peptide substrate; 30 min pre-incubation, 90 min reaction at room temperature; fluorescence
# In short: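 Full-length Avi-tagged enzyme preincubated 30 min at room temperature with compound (2% DMSO final) in HEPES pH 6.89 buffer with sodium citrate, TCEP, EDTA and CHAPS. Ac-LRSR-AMC substrate added at Km or 10×Km (working stocks 50 or […] μM); fluorescence (ex 342/em 441 nm) after 90 min; IC50 from sigmoidal fit.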
row,pIC50,SMILES
1,5.60 to 6.00,"Cn1ccc(-c2nsc(C(=O)Nc3ccnc(C(F)(F)F)c3)c2C2CC2)n1 [I-150, 4-cyclopropyl-3-(1-methyl-1H-pyrazol-3-yl)-N-(2-(trifluoromethyl)pyridin-4-yl)isothiazole-5-carboxamide]"
2,6.00 to 6.40,"O=C(Nc1ccnc(C(F)(F)F)c1)c1snc(-c2ccn3ncnc3c2)c1C1CC1 [I-151, 3-([1,2,4]triazolo[1,5-a]pyridin-7-yl)-4-cyclopropyl-N-(2-(trifluoromethyl)pyridin-4-yl)isothiazole-5-carboxamide]"
3,≥ 6.40,"Cn1ncc2c(-c3nsc(C(=O)Nc4ccnc(C(F)(F)F)c4)c3C3CC3)cccc21 [I-152, 4-cyclopropyl-3-(1-methyl-1H-indazol-4-yl)-N-(2-(trifluoromethyl)pyridin-4-yl)isothiazole-5-carboxamide]"
4,≥ 6.40,"O=C(Nc1ccnc(C(F)(F)F)c1)c1snc(-c2ccc3ncsc3c2)c1C1CC1 [I-153, 3-(1,3-benzothiazol-6-yl)-4-cyclopropyl-N-[2-(trifluoromethyl)pyridin-4-yl]-1,2-thiazole-5-carboxamide]"
5,≥ 6.40,"O=C(Nc1ccnc(C(F)(F)F)c1)c1snc(-c2ccc(C(F)F)cc2)c1C1CC1 [I-154, 4-cyclopropyl-3-(4-(difluoromethyl)phenyl)-N-(2-(trifluoromethyl)pyridin-4-yl)isothiazole-5-carboxamide]"
6,≥ 6.40,"O=C(Nc1ccnc(C(F)(F)F)c1)c1snc(-c2ccncc2F)c1C1CC1 [I-155, 4-cyclopropyl-3-(3-fluoropyridin-4-yl)-N-[2-(trifluoromethyl)pyridin-4-yl]-1,2-thiazole-5-carboxamide]"
7,≥ 6.40,"COc1cccc(-c2nsc(C(=O)Nc3ccnc(C(F)(F)F)c3)c2C2CC2)c1 [I-156, 4-cyclopropyl-3-(3-methoxyphenyl)-N-(2-(trifluoromethyl)pyridin-4-yl)isothiazole-5-carboxamide]"
8,≥ 6.40,"Cn1cc2c(-c3nsc(C(=O)Nc4ccnc(C(F)(F)F)c4)c3C3CC3)cccc2n1 [I-157, 4-cyclopropyl-3-(2-methyl-2H-indazol-4-yl)-N-(2-(trifluoromethyl)pyridin-4-yl)isothiazole-5-carboxamide]"
9,≥ 6.40,"N#Cc1cccc(-c2nsc(C(=O)Nc3ccnc(C(F)(F)F)c3)c2C2CC2)c1 [I-158, 3-(3-cyanophenyl)-4-cyclopropyl-N-[2-(trifluoromethyl)pyridin-4-yl]-1,2-thiazole-5-carboxamide]"
10,≥ 6.40,"O=C(Nc1ccnc(C(F)(F)F)c1)c1snc(-c2cccc3scnc23)c1C1CC1 [I-159, 3-(1,3-benzothiazol-4-yl)-4-cyclopropyl-N-[2-(trifluoromethyl)pyridin-4-yl]-1,2-thiazole-5-carboxamide]"
11,≥ 6.40,"Cc1ccccc1-c1nsc(C(=O)Nc2ccnc(C(F)(F)F)c2)c1C1CC1 [I-160, 4-cyclopropyl-3-(2-methylphenyl)-N-[2-(trifluoromethyl)pyridin-4-yl]-1,2-thiazole-5-carboxamide]"
12,≥ 6.40,"COc1ccccc1-c1nsc(C(=O)Nc2ccnc(C(F)(F)F)c2)c1C1CC1 [I-161, 4-cyclopropyl-3-(2-methoxyphenyl)-N-[2-(trifluoromethyl)pyridin-4-yl]-1,2-thiazole-5-carboxamide]"
13,≥ 6.40,"O=C(Nc1ccnc(C(F)(F)F)c1)c1snc(-c2cccc3ocnc23)c1C1CC1 [I-162, 3-(1,3-benzoxazol-4-yl)-4-cyclopropyl-N-[2-(trifluoromethyl)pyridin-4-yl]-1,2-thiazole-5-carboxamide]"
14,≥ 6.40,"COc1ncccc1-c1nsc(C(=O)Nc2ccnc(C(F)(F)F)c2)c1C1CC1 [I-163, 4-cyclopropyl-3-(2-methoxypyridin-3-yl)-N-(2-(trifluoromethyl)pyridin-4-yl)isothiazole-5-carboxamide]"
15,≥ 6.40,"O=C(Nc1ccnc(C(F)(F)F)c1)c1snc(-c2ccccc2C(F)(F)F)c1C1CC1 [I-164, 4-cyclopropyl-3-(2-(trifluoromethyl)phenyl)-N-(2-(trifluoromethyl)pyridin-4-yl)isothiazole-5-carboxamide]"
